{
  "source": "patent US6436414B1",
  "about": "“Active ingredient combinations or adducts of biotin and/or biotin derivatives and cyclodextrins and use of such active ingredient combinations in cosmetic preparations” (Beiersdorf AG, priority 1999, dated 2002)",
  "origin": "cited, not measured here",
  "details": "according to the literature",
  "data": [
    {"smiles": "O=C(O)CCCC[C@@H]1SC[C@@H]2NC(=O)N[C@@H]21", "note": "[biotin, D-cis-hexahydro-2-oxothieno[3,4-d]imidazole-4-valeric acid]", "values": [
      {"measurement": "solubility limit of biotin in aqueous solution", "result": "about 0.04%"}
    ]}
  ]
}
